These are literature values, as cited in patent US10864193B2, “Parasiticidal compositions comprising fipronil at high concentrations” (BOEHRINGER INGELHEIM ANIMAL HEALTH USA INC., priority 2014, dated 2020).

The conditions of the data set: beagle dogs, spot-on administration, 14C radiolabeled drug.

For `N#Cc1nn(-c2c(Cl)cc(C(F)(F)F)cc2Cl)c(N)c1[S+]([O-])C(F)(F)F` (stereo not shown) [fipronil, 5-amino-3-cyano-1-(2,6-dichloro-4-trifluoromethylphenyl)-4-trifluoromethylsulfinylpyrazole], the “time persistently detected in the whole skin after treatment” value was “up to 56 days”.
